According to ChEMBL document CHEMBL1123177, “1H NMR configurational correlation for retro-inverso dipeptides: application to the determination of the absolute configuration of "enkephalinase" inhibitors. Relationships between stereochemistry and enzyme recognition” (J Med Chem, 1986):

Target: Neprilysin (Oryctolagus cuniculus) (UniProt P08049)
Experiment: Concentration for 50% inhibition of activity of rabbit kidney enkephalinase

Sequence of Neprilysin (Oryctolagus cuniculus) (P08049 whole entry, looked up): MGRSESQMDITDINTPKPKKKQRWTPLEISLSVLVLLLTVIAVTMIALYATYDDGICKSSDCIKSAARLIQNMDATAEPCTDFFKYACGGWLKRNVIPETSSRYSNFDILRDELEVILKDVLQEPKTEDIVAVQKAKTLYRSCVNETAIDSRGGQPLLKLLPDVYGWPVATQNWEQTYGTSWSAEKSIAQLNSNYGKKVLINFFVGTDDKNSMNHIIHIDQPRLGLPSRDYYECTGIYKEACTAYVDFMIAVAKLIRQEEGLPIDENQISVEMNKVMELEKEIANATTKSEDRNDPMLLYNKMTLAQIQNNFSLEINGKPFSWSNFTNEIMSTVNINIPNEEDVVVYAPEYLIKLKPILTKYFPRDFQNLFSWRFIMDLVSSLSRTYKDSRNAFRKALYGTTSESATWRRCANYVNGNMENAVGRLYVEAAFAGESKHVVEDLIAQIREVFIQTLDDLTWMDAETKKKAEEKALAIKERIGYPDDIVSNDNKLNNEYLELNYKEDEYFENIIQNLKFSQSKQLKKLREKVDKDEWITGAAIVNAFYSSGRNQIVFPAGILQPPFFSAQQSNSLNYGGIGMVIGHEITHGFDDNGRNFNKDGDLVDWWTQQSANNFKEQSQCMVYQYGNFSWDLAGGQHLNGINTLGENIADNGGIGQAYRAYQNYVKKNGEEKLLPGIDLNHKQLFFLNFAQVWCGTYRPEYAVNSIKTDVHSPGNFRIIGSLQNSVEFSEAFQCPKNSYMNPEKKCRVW

For `C[C@H](C(=O)O)C(=O)N[C@H](CS)Cc1ccccc1`, which IC50 is on record?
The IC50 was 0.65 nM.

For `O=C(O)CC(=O)NC(CS)Cc1ccccc1` (single isomer, unassigned; 7a), which IC50 is on record?
Its IC50 is 2.3 nM.

`CC(C)C[C@@H](C(=O)O)C(=O)N[C@H](CS)Cc1ccccc1` (racemic) was tested. Which IC50 did it give?
Its IC50 is 1.5 nM.

For `CC(C)C[C@H](C(=O)O)C(=O)N[C@H](CS)Cc1ccccc1`, which IC50 is on record?
The IC50 was 0.75 nM.

Which IC50 does the source give for `C[C@@H](C(=O)O)C(=O)N[C@H](CS)Cc1ccccc1` (racemic) here?
Its IC50 is 0.54 nM.

For `O=C(O)CC(=O)NC(CS)Cc1ccccc1` (single isomer, unassigned; 7b), which IC50 is on record?
Its IC50 is 210 nM.
